Assay results taken from patent US8487108B2, “Piperidinyl carbamate intermediates for the synthesis of aspartic protease inhibitors” (Vitae Pharmaceuticals, Inc., priority 2005, dated 2013).

These compounds were tested against T1, trypsin-activated recombinant human renin (Homo sapiens, UniProt P00797) (assay: Renin fluorescence assay (internally quenched peptide substrate)). Conditions: compounds I*.
T1 sequence (P00797 67-406): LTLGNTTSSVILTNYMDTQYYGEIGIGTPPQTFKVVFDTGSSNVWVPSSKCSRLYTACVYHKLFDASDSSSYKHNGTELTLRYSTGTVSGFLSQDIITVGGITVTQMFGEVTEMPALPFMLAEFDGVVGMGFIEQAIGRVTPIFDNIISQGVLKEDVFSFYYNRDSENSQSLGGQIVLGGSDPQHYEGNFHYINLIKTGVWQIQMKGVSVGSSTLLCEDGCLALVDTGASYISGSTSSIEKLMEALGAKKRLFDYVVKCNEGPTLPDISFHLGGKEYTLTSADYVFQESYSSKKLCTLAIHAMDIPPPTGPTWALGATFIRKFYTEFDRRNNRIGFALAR
Assay type: biochemical
How it was run: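 Cleavage of an angiotensinogen-derived DABCYL-quenched peptide by trypsin-activated recombinant human renin (0.2-2 nM final) in 50 mM BES, 150 mM NaCl, 0.25 mg/mL BSA, pH 7.0; compounds 10 μM to 1 nM final. Fluorescence (ex 340/em 495 nm) followed 60-360 min at rt; linear-slope rates give percent inhibition versus uninhibited control.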
In the case of CNC[C@H](CC1CCOCC1)NC(=O)N1CCO[C@@H]([C@@H](OCCNC(=O)OC)c2cccc(Cl)c2)C1 [I*-75a, methyl 2-((S)-(3-chlorophenyl)((R)-4-((S)-1-(methylamino)-3-(tetrahydro-2H-pyran-4-yl)propan-2-ylcarbamoyl)morpholin-2-yl)methoxy)ethylcarbamate], the IC50 is reported as greater than 0.05 µM.
CNC[C@H](C[C@H]1CCC(=O)N(C)C1)NC(=O)N1CCC[C@@H]([C@@H](OCCNC(=O)OC)c2cccc(F)c2)C1 [I*-76a, methyl 2-((R)-(3-fluorophenyl)((R)-1-((S)-1-((R)-1-methyl-6-oxopiperidin-3-yl)-3-(methylamino)propan-2-ylcarbamoyl)piperidin-3-yl)methoxy)ethylcarbamate] was tested, and the IC50 was greater than 0.05 µM.
CNC[C@H](C[C@H]1C[C@@H](C)O[C@@H](C)C1)NC(=O)N1CCC[C@@H]([C@@H](OCCNC(=O)OC)c2cccc(F)c2)C1 [I*-77a, methyl 2-((R)-((R)-1-((S)-1-((2S,4r,6R)-2,6-dimethyl-tetrahydro-2H-pyran-4-yl)-3-(methylamino)propan-2-ylcarbamoyl)piperidin-3-yl)(3-fluorophenyl)methoxy)ethylcarbamate] gave an IC50 greater than 0.05 µM.
CNC[C@H](CCC1(OC)CCCC1)NC(=O)N1CCC[C@@H]([C@@H](OCCNC(=O)OC)c2cccc(F)c2)C1 [I*-78a, methyl 2-((R)-(3-fluorophenyl)((R)-1-((S)-4-(1-methoxycyclopentyl)-1-(methylamino)butan-2-yl-carbamoyl)piperidin-3-yl)methoxy)ethylcarbamate] gave an IC50 greater than 0.05 µM.
With CNC[C@H](C[C@H]1CCCCOC1)NC(=O)N1CCC[C@@H]([C@@H](OCCNC(=O)OC)c2cc(F)ccc2C)C1 [I*-79a, methyl 2-((R)-(5-fluoro-2-methylphenyl)((R)-1-((S)-1-(methylamino)-3-((R)-oxepan-3-yl)propan-2-ylcarbamoyl)piperidin-3-yl)methoxy)ethylcarbamate] the IC50 was less than 0.01 µM.
In the case of CNC[C@H](CC1CCC(=O)CC1)NC(=O)N1CCC[C@@H]([C@@H](OCCNC(=O)OC)c2cccc(Cl)c2)C1 [I*-80a, methyl 2-((R)-(3-chlorophenyl)((R)-1-((S)-1-(methylamino)-3-(4-oxocyclohexyl)propan-2-ylcarbamoyl)piperidin-3-yl)methoxy)ethylcarbamate], the IC50 is reported as less than 0.01 µM.
CN[C@H](C)[C@H](CC1CCCCC1)NC(=O)N1CCC[C@@H]([C@@H](OCCNC(=O)OC)c2cccc(Cl)c2)C1 [I*-82a, methyl 2-((R)-(3-chlorophenyl)((R)-1-((2S,3R)-1-cyclohexyl-3-(methylamino)butan-2-ylcarbamoyl)piperidin-3-yl)methoxy)ethylcarbamate] gave an IC50 of less than 0.001 µM.
CC[C@@H](N)[C@H](CC1CCCCC1)NC(=O)N1CCC[C@@H]([C@@H](OCCNC(=O)OC)c2cccc(Cl)c2)C1 [I*-83a, methyl 2-((R)-((R)-1-((2S,3R)-3-amino-1-cyclohexylpentan-2-ylcarbamoyl)piperidin-3-yl)(3-chlorophenyl)methoxy)ethylcarbamate] showed an IC50 of less than 0.001 µM.
Compound CNC[C@H](CC1CCCCCC1)NC(=O)N1CCC[C@@H]([C@@H](OCCNC(=O)OC)c2cccc(Cl)c2)C1 [I*-84a, methyl 2-((R)-(3-chlorophenyl)((R)-1-((S)-1-cycloheptyl-3-(methylamino)propan-2-ylcarbamoyl)piperidin-3-yl)methoxy)ethylcarbamate] has an IC50 of less than 0.001 µM.
Compound CNC[C@H](CC1CCCCC1)NC(=O)N1CCC[C@@H]([C@@H](OCCNC(=O)OC)c2cc(Cl)ccc2C)C1 [I*-85a, methyl 2-((R)-(5-chloro-2-methylphenyl)((R)-1-((S)-1-cyclohexyl-3-(methylamino)propan-2-ylcarbamoyl)piperidin-3-yl)methoxy)ethylcarbamate] has an IC50 of less than 0.001 µM.
CNC[C@H](CC1CCC(C)CC1)NC(=O)N1CCC[C@@H]([C@@H](OCCNC(=O)OC)c2cccc(Cl)c2)C1 (stereo partly drawn) [I*-86a, methyl 2-((R)-(3-chlorophenyl)((R)-1-((S)-1-(methylamino)-3-(4-methylcyclohexyl)propan-2-ylcarbamoyl)piperidin-3-yl)methoxy)ethylcarbamate] gave an IC50 of less than 0.001 µM.
CNC[C@H](CC1CCCCC1)NC(=O)N1CCC[C@@H]([C@@H](OCC(C)NC(=O)OC)c2cccc(Cl)c2)C1 (some centres unmarked) [I*-87a] gave an IC50 of less than 0.05 µM.
In the case of CCNC[C@H](CC1CCCCC1)NC(=O)N1CCC[C@@H]([C@@H](OCCNC(=O)OC)c2cccc(Cl)c2)C1 [I*-88a, methyl 2-((R)-(3-chlorophenyl)((R)-1-((S)-1-cyclohexyl-3-(ethylamino)propan-2-ylcarbamoyl)piperidin-3-yl)methoxy)ethylcarbamate], the IC50 is reported as less than 0.001 µM.
Work on CNC[C@@H](CC1(C)CCCCC1)NC(=O)N1CCC[C@@H]([C@@H](OCCNC(=O)OC)c2cccc(Cl)c2)C1 [I*-89a, methyl 2-((R)-(3-chlorophenyl)((R)-1-((R)-1-(methylamino)-3-(1-methylcyclohexyl)propan-2-ylcarbamoyl)piperidin-3-yl)methoxy)ethylcarbamate] yielded an IC50 greater than 0.05 µM.
With CNC[C@H](CC1(C)CCCCC1)NC(=O)N1CCC[C@@H]([C@@H](OCCNC(=O)OC)c2cccc(Cl)c2)C1 [I*-90a, methyl 2-((R)-(3-chlorophenyl)((R)-1-((S)-1-(methylamino)-3-(1-methylcyclohexyl)propan-2-ylcarbamoyl)piperidin-3-yl)methoxy)ethylcarbamate] the IC50 was less than 0.001 µM.
For CNC[C@H](CC1CCCCC1)NC(=O)N1CCCC[C@@H]([C@@H](OCCNC(=O)OC)c2cccc(Cl)c2)C1 [I*-91a, methyl 2-((R)-(3-chlorophenyl)((R)-1-((S)-1-cyclohexyl-3-(methylamino)propan-2-ylcarbamoyl)azepan-3-yl)methoxy)ethylcarbamate], the IC50 was less than 0.01 µM.
For CNC[C@H](CC1CCCCC1)NC(=O)N1CCCC[C@@H]([C@H](OCCNC(=O)OC)c2cccc(Cl)c2)C1 [I*-92a, methyl 2-((S)-(3-chlorophenyl)((R)-1-((S)-1-cyclohexyl-3-(methylamino)propan-2-ylcarbamoyl)azepan-3-yl)methoxy)ethylcarbamate], the IC50 was greater than 0.05 µM.
CNC[C@H](CN1CCCCC1=O)NC(=O)N1CCC[C@@H]([C@@H](OCCNC(=O)OC)c2cccc(Cl)c2)C1 [I*-93a, methyl 2-((R)-(3-chlorophenyl)((R)-1-((R)-1-(methylamino)-3-(2-oxopiperidin-1-yl)propan-2-yl-carbamoyl)piperidin-3-yl)methoxy)ethylcarbamate] showed an IC50 greater than 0.05 µM.
CNC[C@@H](CC1(C)CCCCC1)NC(=O)N1CCC[C@@H]([C@@H](OCCNC(=O)OC)c2cc(F)cc(F)c2)C1 [I*-94a, methyl 2-((R)-(3,5-difluorophenyl)((R)-1-((R)-1-(methylamino)-3-(1-methylcyclohexyl)propan-2-ylcarbamoyl)piperidin-3-yl)methoxy)ethylcarbamate] gave an IC50 greater than 0.05 µM.
CNC[C@H](CC1(C)CCCCC1)NC(=O)N1CCC[C@@H]([C@@H](OCCNC(=O)OC)c2cc(F)cc(F)c2)C1 [I*-95a, methyl 2-((R)-(3,5-difluorophenyl)((R)-1-((S)-1-(methylamino)-3-(1-methylcyclohexyl)propan-2-ylcarbamoyl)piperidin-3-yl)methoxy)ethylcarbamate] gave an IC50 of less than 0.01 µM.
CNC[C@H](CC1CCCCC1)NC(=O)N1CCC[C@@H]([C@@H](OCCNC(=O)OC)c2c(C)ccc(F)c2F)C1 [I*-96a, methyl 2-((R)-((R)-1-((S)-1-cyclohexyl-3-(methylamino)propan-2-ylcarbamoyl)piperidin-3-yl)(2,3-difluoro-6-methylphenyl)methoxy)ethylcarbamate] was tested, and the IC50 was less than 0.01 µM.
CNC[C@H](CC1CCCCC1)NC(=O)N1CCC[C@H]([C@@H](OCCNC(=O)OC)c2c(C)ccc(F)c2F)C1 [I*-97a, methyl 2-((R)-((S)-1-((S)-1-cyclohexyl-3-(methylamino)propan-2-ylcarbamoyl)piperidin-3-yl)(2,3-difluoro-6-methylphenyl)methoxy)ethylcarbamate] was tested, and the IC50 was less than 0.02 µM.
CNC[C@H](C[C@H]1CCCOCC1)NC(=O)N1CCC[C@@H]([C@@H](OCCNC(=O)OC)c2cccc(Cl)c2)C1 [I*-98a, methyl 2-((R)-(3-chlorophenyl)((R)-1-((S)-1-(methylamino)-3-((R)-oxepan-4-yl)propan-2-yl-carbamoyl)piperidin-3-yl)methoxy)ethylcarbamate] gave an IC50 of less than 0.01 µM.
Work on CNC[C@H](C[C@@H]1CCCOCC1)NC(=O)N1CCC[C@@H]([C@@H](OCCNC(=O)OC)c2cccc(Cl)c2)C1 [I*-99a, methyl 2-((R)-(3-chlorophenyl)((R)-1-((S)-1-(methylamino)-3-((S)-oxepan-4-yl)propan-2-ylcarbamoyl)piperidin-3-yl)methoxy)ethylcarbamate] yielded an IC50 of less than 0.01 µM.
Compound CNC[C@@H](NC(=O)N1CCC[C@@H]([C@@H](OCCNC(=O)OC)c2cccc(Cl)c2)C1)[C@@H](O)C1CCCCC1 [I*-100a, methyl 2-((R)-(3-chlorophenyl)((R)-1-((1S,2R)-1-cyclohexyl-1-hydroxy-3-(methylamino)propan-2-ylcarbamoyl)piperidin-3-yl)methoxy)ethylcarbamate] has an IC50 of less than 0.001 µM.
For CNC[C@H](CC1CCOCC1)NC(=O)N1CCC[C@@H]([C@@H](OCCNC(=O)OC)c2cc(Cl)ccc2C)C1 [I*-101a, methyl 2-((R)-(5-chloro-2-methylphenyl)((R)-1-((S)-1-(methylamino)-3-(tetrahydro-2H-pyran-4-yl)propan-2-ylcarbamoyl)piperidin-3-yl)methoxy)ethylcarbamate], the IC50 was less than 0.01 µM.
